“Also recorded” adds a separate entry of the source.
Key:
GluR1-L497Y = GluR1-L497Y (Homo sapiens, UniProt P42261, L497Y); assay type: cell-based
[1] = test system: primary cultured astrocyte; assay type: cell-based, mouse
Best1 channel [2] = target: Best1 channel (Mus musculus, UniProt O88870); assay type: cell-based
Best1 channel [3] = target: T1, Best1 channel (Mus musculus, UniProt O88870); details: intracellular Ca2+; read-out: EC50 of activation of Best1 channel; cited from earlier work
T1 sequence (O88870 1-551): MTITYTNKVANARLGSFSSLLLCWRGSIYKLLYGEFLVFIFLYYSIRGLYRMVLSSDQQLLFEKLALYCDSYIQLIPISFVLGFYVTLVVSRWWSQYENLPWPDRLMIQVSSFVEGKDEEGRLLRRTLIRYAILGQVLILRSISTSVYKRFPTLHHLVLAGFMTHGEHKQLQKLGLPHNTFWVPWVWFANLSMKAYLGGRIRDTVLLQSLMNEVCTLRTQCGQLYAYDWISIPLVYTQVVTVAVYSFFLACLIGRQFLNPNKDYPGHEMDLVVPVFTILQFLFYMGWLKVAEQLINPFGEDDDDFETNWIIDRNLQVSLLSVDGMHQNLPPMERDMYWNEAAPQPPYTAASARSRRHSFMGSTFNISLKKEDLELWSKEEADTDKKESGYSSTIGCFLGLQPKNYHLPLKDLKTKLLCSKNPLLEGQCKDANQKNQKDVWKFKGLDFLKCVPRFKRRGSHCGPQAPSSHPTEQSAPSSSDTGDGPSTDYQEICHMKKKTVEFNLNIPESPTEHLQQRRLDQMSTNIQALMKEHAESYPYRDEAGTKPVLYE

mouse TREK-1 = target: T2, mouse TREK-1 (Mus musculus, UniProt P97438); test: TREK-1-mediated whole-cell current in COS-7 cells; assay type: cell-based; details: COS-7 cell expressing TREK-1; voltage ramp
T2 construct: expressed in transfected cells; host or cells: COS-7
T2 sequence (P97438 1-426): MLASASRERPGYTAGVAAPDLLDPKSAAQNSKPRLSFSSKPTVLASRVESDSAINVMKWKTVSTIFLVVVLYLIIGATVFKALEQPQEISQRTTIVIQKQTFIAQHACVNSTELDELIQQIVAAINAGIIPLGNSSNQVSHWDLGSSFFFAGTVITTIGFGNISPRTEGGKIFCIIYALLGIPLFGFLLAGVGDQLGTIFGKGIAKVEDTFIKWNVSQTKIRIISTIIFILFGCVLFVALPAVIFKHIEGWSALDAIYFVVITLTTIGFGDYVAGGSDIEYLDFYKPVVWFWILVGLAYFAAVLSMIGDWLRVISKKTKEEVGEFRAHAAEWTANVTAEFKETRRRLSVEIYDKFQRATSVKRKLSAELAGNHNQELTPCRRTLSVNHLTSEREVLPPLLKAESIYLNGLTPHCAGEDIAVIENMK
Protocol: (§1) Current-voltage (I-V) curves were recorded from COS-7 expressing TREK-1. I-V curves were established by applying 1000-ms-duration voltage ramps from +70 to −100 mV. Data were acquired by an Axopatch 200A amplifier controlled by Clampex 9.2 via Digidata 1322A data acquisition system (Molecular Devices). Internal solution contained the following (in mM: 150 KCl, 5 EGTA, 10 HEPES, 0.5 CaCl2, 1 MgCl2, pH 7.3, 280 osm). Bath solution contains the following (in mM: 150 NaCl, 10 HEPES, 3 KCl, 2 CaCl2, 2MgCl2, and 5.5 glucose, pH 7.3). The pipette solution for observing Ca^2+ activated Cl^− current (Best1 channel current) whole-cell patch clamp in astrocytes contained the following (in mM: 135 NMDG-Cl, 5 MgCl2, 5 (Ca^2+)-EGTA-N-methyl-D-glucamine (NMDG), 10 HEPES, and 10 glucose, pH 7.3, adjusted with NMDG). We used Ca^2+-free intracellular solution composed of the following (in mM: 135 NMDG-Cl, 5 EGTA-NMDG, 2 MgCl2, 8 HEPES, and 10 sucrose, pH 7.3, adjusted with NMDG). I-V curves were established by applying 1000-ms-duration voltage ramps from +100 to −100 mV.

astrocyte = assay type: cell-based, mouse
TREK-1 [4] = test: Gβγ-induced whole-cell current in cultured astrocytes; assay type: cell-based, mouse; details: 6.09 nM Gβγ; for Gβγ-induced whole-cell current: competitive peptide in patch pipette; for Gβγ-induced conductance: 150 [Glu]in, gene silencing
Protocol: as §1
We then asked whether Gβγ can directly open any channels in cultured astrocytes. We performed whole-cell current recording with purified Gβγ in the patch-pipette according to the method of Experimentation 12. The results were shown in FIGS. 3d to 3f, FIG. 3i, and FIGS. 12d to 12f.

GNG4 = target: T3, GNG4 (Homo sapiens, UniProt P50150); test: Yeast two hybrid interaction of TREK-1 N-terminal segments with GNG4; assay type: binding
T3 construct: expressed in transfected cells; host or cells: yeast strain AH109
T3 sequence (P50150 1-75): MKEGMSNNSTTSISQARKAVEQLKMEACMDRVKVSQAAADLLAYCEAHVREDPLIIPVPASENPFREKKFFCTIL
From the text: The TREK-1-N 1-4 were ligated into pGBKT7 encoding for the GAL4 DNA binding domain (BD) and the gamma 4 was cloned into pGADT7 encoding for the activation domain (AD). To assess the protein-protein interaction between TREK-1-N and gamma 4, both BD/TREK-1-N and AD/gamma 4 were co-transformed into the yeast strain AH109. AH109 is unable to synthesize histidine. However, interaction between TREK1-N and gamma 4 enables the yeast to make the His3 enzyme, thereby permitting histidine biosynthesis and growth on His minimal medium.

TREK-1 [5] = test: Two-cell sniffer patch: Gβγ-induced glutamate release from astrocyte; assay type: cell-based, mouse; details: 6.09 nM Gβγ, 5 mM glutamate in pipette; peptides 100 μM
Protocol: On the day of sniffer-patch, cultured astrocytes (HEK cells added) were transferred to a microscope stage for imaging. External solution contained (in mM): 150 NaCl, 10 Hepes, 3 KCl, 2 CaCl2, 2 MgCl2, 5.5 glucose, pH adjusted to pH 7.3 and osmolarity to 325 mOsmol kg* Rupture current were recorded from astrocyte under voltage (Vh=−70 mV) using Multiclamp 700B amplifier (Molecular Devices), acquired with pClamp 9.2. Recording electrodes (4-7MΩ) were filled with (mM): 5 glutamate, 135 CsCl, 0.5 CaCl2, 10 Hepes, 4 Mg-ATP, 0.3 Na3-GTP, 10 BAPTA and 6.09 nM Gβγ (pH adjusted to 7.3 with CsOH and osmolarity adjusted to 290-310 mOsm/kg with sucrose). In the case of gene silencing, transfection method is the same as simultaneous recording for sniffer patch. In competition assay, 100 μM N1-N4 synthesized peptides were added to pipette for recording astrocyte. GluR1LY-mediated currents were recorded from HEK cells expressing GluR1-L497Y under voltage clamp (Vh=−70 mV) using Multiclamp 700B amplifier (Molecular Devices), acquired with pClamp 9.2. Recording electrodes (4-7MΩ) were filled with (mM): 110 Cs-Gluconate, 30 CsCl, 0.5 CaCl2, 10 Hepes, 4 Mg-ATP, 0.3 Na3-GTP and 10 BAPTA (pH adjusted to 7.3 with CsOH and osmolarity adjusted to 290-310 mOsm/kg with sucrose). After rupture on the side of HEK cell, GluR1-L497Y-meidated full activation was induced by the treatment of 1 mM glutamate. And then Gβγ on the side of astrocyte was injected with the rupture after 10 min later. This rupture induced both inward current on both recording between astrocyte and HEK cell expressing GluR1-L497Y.

Sequence of GluR1-L497Y (P42261 19-906 L497Y limits assumed): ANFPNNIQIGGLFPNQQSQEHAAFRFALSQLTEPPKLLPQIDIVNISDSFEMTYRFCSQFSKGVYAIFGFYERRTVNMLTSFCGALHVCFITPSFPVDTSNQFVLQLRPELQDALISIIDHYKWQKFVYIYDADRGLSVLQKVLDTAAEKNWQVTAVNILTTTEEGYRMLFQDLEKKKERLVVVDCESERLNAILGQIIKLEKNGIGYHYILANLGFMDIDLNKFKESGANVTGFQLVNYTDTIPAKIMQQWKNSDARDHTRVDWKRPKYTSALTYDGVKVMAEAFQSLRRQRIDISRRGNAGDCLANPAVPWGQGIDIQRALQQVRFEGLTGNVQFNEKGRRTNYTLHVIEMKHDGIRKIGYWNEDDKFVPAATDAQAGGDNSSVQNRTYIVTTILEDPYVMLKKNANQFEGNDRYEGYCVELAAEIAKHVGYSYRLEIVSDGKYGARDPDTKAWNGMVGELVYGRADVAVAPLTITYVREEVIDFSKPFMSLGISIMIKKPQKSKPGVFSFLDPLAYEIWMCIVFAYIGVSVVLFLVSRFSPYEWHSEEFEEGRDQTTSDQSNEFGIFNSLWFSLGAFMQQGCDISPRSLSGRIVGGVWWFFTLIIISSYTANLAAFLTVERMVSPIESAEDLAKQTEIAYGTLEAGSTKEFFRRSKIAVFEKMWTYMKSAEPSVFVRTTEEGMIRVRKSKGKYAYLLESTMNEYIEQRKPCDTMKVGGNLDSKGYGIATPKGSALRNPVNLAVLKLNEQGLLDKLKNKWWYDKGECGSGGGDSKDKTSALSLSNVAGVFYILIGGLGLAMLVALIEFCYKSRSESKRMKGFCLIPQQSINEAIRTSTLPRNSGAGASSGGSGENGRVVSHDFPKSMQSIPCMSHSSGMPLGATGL

CO/C1=C\C(C)=C\[C@@H](C)[C@@H](O)[C@@H](C)C/C(C)=C/C=C/[C@H](OC)[C@@H]([C@@H](C)[C@@H](O)[C@H](C)[C@@]2(O)C[C@@H](O)[C@H](C)[C@@H](C(C)C)O2)OC1=O [Bafilomycin A1]
1 mM glutamate-induced GluR1L497Y-mediated current of sensor cell (GluR1-L497Y): marked reduction
GluR1LY-mediated Ca2+ transient evoked by 1 mM glutamate (GluR1-L497Y): reduces
surface expression of GluR1-L497Y in the sensor cell (GluR1-L497Y): almost completely eliminated
fast and slow-modes of TFLLR-induced glutamate release (TFLLR-induced GluR1L497Y-mediated current) [1]: significantly reduction; also recorded: significantly reduced; also recorded: appeared to block
Ca2+-activated anion current (Best1 channel [2]): inhibited

[Ca+2] [Ca^2+]
EC50 (Best1 channel [3]): 150 nM

Cc1nc(N=Nc2ccc(S(=O)(=O)[O-])cc2S(=O)(=O)[O-])c(COP(=O)([O-])[O-])c(C=O)c1O.[Na+].[Na+].[Na+].[Na+] [PPADS, pyridoxal phosphate-6-azophenyl-2′,4′-disulfonic acid tetrasodium salt]
TREK-1-mediated current (mouse TREK-1): inhibits
1 mM glutamate-induced GluR1L497Y-mediated current of sensor cell (GluR1-L497Y): non-specific effect
fast-mode of TFLLR-induced glutamate release [1]: appeared to block

O=C([O-])c1c(Cl)c(Cl)c(Cl)c(Cl)c1-c1c2cc(I)c(=O)c(I)c-2oc2c(I)c([O-])c(I)cc12.[Na+].[Na+] [Rose Bengal]
glutamate release in response to mechanical stimulation (astrocyte): inhibited
fast and slow-modes of TFLLR-induced glutamate release (TFLLR-induced GluR1L497Y-mediated current) [1]: does not inhibit; also recorded: did not have any effect

AAPDLLDPKSA (Competitive peptides N1 of TREK-1)
Gβγ-induced whole-cell current (TREK-1 [4]): significantly reduced; also recorded: almost inhibit
interaction with GNG4 (GNG4): strongly interacted
Gβγ-induced current in astrocyte (TREK-1 [5]): significantly reduced
Gβγ-induced glutamate release (sensor current) (TREK-1 [5]): significantly reduced

AQNSKPRLSFSS (Competitive peptides N2 of TREK-1)
Gβγ-induced whole-cell current (TREK-1 [4]): significantly reduced
interaction with GNG4 (GNG4): strongly interacted

DSAINVMKWKT (Competitive peptides N4 of TREK-1)
Gβγ-induced whole-cell current (TREK-1 [4]): significantly reduced
interaction with GNG4 (GNG4): strongly interacted

TREK-1-shRNA: shRNA for mouse TREK-1 targeted at nucleotides 1043 to 1063 (SEQ ID NO: 17), in pSicoR (guide GCGTGGAGATCTACGACAAGT)
Gβγ-induced conductance (TREK-1 [4]): eliminated
Gβγ-induced conductance (TREK-1 [4]; listed as TREK-1 specific shRNA): almost completely removed
Gβγ-induced current in astrocyte (TREK-1 [5]): abolished
Gβγ-induced glutamate release (sensor current) (TREK-1 [5]): abolished
fast-mode of TFLLR-induced glutamate release [1]: selectively eliminated
slow-mode of TFLLR-induced glutamate release [1]: without affecting

— patent publication US8871463B2, “Method for screening a glutamate release inhibitor in an astrocyte” (Korea Institute of Science and Technology, priority 2012, dated 2014)
